Measured values from US20090131503A1, “3,5 - SUBSTITUTED INDOLE COMPOUNDS HAVING NOS AND NOREPINEPHRINE REUPTAKE INHIBITORY ACTIVITY” (priority 2007, published 2009).
Entries after “also recorded” stand apart in the source; their conditions may differ. Where a name gives a salt, the structure may show the parent alone. Read-outs that look alike come from different tables or passages of the source.

Tests used:
[1] = target: T1, Nitric oxide synthase (neuronal, human recombinant) nNOS (Homo sapiens, UniProt P29475); assay: nNOS (human) enzyme assay, [3H]-L-arginine to L-citrulline conversion; type: biochemical
T1 construct: purchased Axxora LLC ALX-201-068
T1 sequence (P29475 whole entry): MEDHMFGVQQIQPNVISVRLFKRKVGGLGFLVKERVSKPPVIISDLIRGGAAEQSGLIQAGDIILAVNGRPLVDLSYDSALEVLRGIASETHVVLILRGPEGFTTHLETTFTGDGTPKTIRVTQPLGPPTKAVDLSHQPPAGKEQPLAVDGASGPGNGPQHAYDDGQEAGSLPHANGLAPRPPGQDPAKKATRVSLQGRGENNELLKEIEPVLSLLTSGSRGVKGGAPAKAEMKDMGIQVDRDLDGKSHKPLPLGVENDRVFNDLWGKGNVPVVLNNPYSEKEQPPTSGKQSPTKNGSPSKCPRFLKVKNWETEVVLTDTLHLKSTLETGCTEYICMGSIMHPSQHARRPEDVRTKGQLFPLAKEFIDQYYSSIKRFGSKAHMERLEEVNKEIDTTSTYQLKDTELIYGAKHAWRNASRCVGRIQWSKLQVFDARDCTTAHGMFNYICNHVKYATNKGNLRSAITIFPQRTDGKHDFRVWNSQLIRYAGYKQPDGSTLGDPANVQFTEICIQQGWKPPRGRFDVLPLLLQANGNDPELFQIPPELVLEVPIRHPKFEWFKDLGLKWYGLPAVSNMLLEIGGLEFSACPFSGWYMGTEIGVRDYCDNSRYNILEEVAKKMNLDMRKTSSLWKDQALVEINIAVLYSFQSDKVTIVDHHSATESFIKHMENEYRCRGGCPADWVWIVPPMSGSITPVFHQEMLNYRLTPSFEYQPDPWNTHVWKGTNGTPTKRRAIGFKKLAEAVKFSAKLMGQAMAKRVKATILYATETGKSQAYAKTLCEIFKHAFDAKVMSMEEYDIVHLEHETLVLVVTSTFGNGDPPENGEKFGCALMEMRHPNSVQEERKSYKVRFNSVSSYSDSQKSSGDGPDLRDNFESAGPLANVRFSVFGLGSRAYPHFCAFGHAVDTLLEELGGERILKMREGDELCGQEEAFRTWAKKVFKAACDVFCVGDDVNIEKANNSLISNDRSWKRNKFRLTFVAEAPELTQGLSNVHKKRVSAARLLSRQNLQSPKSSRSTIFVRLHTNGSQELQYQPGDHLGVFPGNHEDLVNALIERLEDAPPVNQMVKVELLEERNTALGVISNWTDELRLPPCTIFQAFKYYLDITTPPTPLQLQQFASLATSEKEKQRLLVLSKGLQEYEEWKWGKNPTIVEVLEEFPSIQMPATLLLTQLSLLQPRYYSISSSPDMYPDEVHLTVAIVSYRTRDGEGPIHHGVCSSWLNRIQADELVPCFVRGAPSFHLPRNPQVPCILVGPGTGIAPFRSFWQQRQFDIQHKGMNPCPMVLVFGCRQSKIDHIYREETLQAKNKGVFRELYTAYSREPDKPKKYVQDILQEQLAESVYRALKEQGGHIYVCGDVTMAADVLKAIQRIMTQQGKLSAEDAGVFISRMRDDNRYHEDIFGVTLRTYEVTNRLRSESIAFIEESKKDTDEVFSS

[2] = target: T2, Nitric oxide synthase (endothelial, human recombinant) eNOS (Homo sapiens, UniProt P29474); assay: eNOS (human) enzyme assay, [3H]-L-arginine to L-citrulline conversion; type: biochemical
T2 construct: purchased Axxora LLC ALX-201-070
T2 sequence (P29474 whole entry): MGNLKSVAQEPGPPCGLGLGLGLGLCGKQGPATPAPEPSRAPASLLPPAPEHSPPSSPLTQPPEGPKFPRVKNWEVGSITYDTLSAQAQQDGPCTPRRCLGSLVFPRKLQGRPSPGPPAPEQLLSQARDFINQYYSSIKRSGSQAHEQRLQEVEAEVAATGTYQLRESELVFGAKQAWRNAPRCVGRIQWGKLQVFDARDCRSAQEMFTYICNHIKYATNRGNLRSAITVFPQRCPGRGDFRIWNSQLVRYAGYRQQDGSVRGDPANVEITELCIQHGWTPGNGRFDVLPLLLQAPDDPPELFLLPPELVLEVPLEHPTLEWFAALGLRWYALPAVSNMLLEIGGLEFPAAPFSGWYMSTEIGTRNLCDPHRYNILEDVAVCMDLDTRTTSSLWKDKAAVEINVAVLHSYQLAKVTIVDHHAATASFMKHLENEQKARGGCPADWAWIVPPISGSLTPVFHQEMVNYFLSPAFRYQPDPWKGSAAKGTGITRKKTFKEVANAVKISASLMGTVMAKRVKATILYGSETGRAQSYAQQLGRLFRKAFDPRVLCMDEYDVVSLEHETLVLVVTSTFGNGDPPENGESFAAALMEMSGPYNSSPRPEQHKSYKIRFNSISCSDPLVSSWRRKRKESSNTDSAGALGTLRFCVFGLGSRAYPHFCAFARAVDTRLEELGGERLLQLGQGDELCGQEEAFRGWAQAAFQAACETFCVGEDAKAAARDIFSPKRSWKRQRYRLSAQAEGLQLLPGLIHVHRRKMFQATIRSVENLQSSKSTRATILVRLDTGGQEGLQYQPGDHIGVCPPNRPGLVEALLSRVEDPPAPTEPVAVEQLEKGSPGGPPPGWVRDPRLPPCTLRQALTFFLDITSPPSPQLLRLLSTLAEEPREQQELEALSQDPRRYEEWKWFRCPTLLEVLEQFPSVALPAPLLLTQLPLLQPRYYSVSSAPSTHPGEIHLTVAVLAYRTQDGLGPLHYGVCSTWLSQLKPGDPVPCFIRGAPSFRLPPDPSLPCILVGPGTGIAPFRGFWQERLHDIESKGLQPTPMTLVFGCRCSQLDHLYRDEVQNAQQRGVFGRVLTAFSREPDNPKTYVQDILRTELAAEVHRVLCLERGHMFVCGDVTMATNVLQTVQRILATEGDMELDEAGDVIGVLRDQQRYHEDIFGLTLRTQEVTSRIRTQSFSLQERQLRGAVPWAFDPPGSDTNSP

[3] = target: T3, human NET (Homo sapiens, UniProt P23975); assay: Human norepinephrine transporter assay, [3H]nisoxetine binding to cell membrane homogenates
T3 construct: expressed in transfected cells
T3 sequence (P23975 whole entry): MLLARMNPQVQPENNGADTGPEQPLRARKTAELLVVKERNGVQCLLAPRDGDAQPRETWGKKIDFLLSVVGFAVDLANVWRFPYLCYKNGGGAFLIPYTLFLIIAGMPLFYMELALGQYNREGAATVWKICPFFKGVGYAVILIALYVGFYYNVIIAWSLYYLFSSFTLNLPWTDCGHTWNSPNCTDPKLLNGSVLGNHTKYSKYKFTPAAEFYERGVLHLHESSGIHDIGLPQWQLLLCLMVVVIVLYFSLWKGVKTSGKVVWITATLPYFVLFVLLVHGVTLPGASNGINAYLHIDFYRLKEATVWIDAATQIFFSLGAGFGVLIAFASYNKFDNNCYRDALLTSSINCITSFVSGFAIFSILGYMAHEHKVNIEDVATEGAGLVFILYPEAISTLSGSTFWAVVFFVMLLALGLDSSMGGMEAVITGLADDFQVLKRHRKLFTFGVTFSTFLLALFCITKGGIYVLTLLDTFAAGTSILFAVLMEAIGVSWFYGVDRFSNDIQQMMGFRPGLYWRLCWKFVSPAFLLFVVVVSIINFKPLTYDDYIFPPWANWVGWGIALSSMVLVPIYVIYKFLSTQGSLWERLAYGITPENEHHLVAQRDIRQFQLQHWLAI
Protocol: Human Norepinephrine Transporter Assay
Nonspecific binding was determined in the presence of 1 μM desipramine. Following incubation, the samples were filtered rapidly under vacuum through glass fiber filters (GF/B, Packard) presoaked with 0.3% PEI, and rinsed several times with ice-cold 50 mM Tris-HCl using a 96-sample cell harvester (Unifilter, Packard). The filters were dried then counted for radioactivity in a scintillation counter (Topcount, Packard) using a scintillation cocktail (Microscint 0, Packard). The results were expressed as a percent inhibition of the control radioligand specific binding. The standard reference compound was protriptyline, which was tested in each experiment at several concentrations to obtain a competition curve from which its IC50 is calculated. Typical assay volumes were 250 μL in 96-well plate and compounds are solubilized in water.

[4] = system: L5/L6 spinal nerve ligation model of neuropathic pain (Chung model); assay: Chung L5/L6 spinal nerve ligation model, thermal hyperalgesia; type: in vivo, rat; details: rats, 30 mg/kg i.p., one dose
Protocol: (§1) The L5/L6 spinal nerve was surgically ligated and animals allowed to recover for a period of 7-10 days. During this period animals develop neuropathic pain. The reduction of paw withdrawal latency after an infrared thermal stimulus (post-SNL) was measured following the induction period for comparison with pre-surgery baseline levels (BL). Following drug administration, thermal hyperalgesia was measured at various time points.
(§2) (a) Chung Model of Injury-induced Neuropathic-like Pain: The experimental designs for the Chung Spinal Nerve Ligation SNL Model assay for neuropathic pain are depicted in FIGS. 1a and 1b. Nerve ligation injury was performed according to the method described by Kim and Chung (Kim and Chung, Pain 50:355-363, 1992). This technique produces signs of neuropathic dysesthesias, including tactile allodynia, thermal hyperalgesia, and guarding of the affected paw. Rats were anesthetized with halothane, and the vertebrae over the L4 to S2 region were exposed. The L5 and L6 spinal nerves were exposed, carefully isolated, and tightly ligated with 4-0 silk sutures distal to the DRG. After ensuring homeostatic stability, the wounds were sutured, and the animals allowed to recover in individual cages. Sham-operated rats were prepared in an identical fashion except that the L5/L6 spinal nerves were not ligated. […]

[5] = system: L5/L6 spinal nerve ligation model of neuropathic pain (Chung model); assay: Chung L5/L6 spinal nerve ligation model, tactile allodynia; type: in vivo, rat; details: rats, 30 mg/kg i.p., one dose
Protocol: as §1, with “tactile thresholds” for “paw withdrawal latency after an infrared thermal stimulus”, “tactile allodynia” for “thermal hyperalgesia”, “points with calibrated von-Frey filaments.” for “points.”
as §2

[6] = system: migraine; details: open pilot study; cited from earlier work
[7] = system: migraine; details: migraine patients, single i.v. administration; cited from earlier work
[8] = Table 2, compounds tested as hydrochloride salts
[9] = IC50, Human NET activity, Table 2, compounds tested as hydrochloride salts
[10] = Table 2, compounds tested as hydrochloride salts, read-out: IC50, Human NET activity

Row | IC50 [3, 10] | Structure (SMILES) | IC50 [1, 8] | IC50 [2, 8] | also measured
1 |  | CN(C)C1CC=C(c2c[nH]c3ccc(NC(=N)c4cccs4)cc23)CC1 (racemic) [(±)-2, N-(3-(4-(dimethylamino)cyclohex-1-enyl)-1H-indol-5-yl)thiophene-2-carboximidamide] | 3000 nM | 51400 nM | IC50 [3, 9]: 550 nM
2 |  | CN(C)C1CCC(c2c[nH]c3ccc(NC(=N)c4cccs4)cc23)CC1 (stereo not drawn) [Compound 4, N-(3-(4-(dimethylamino)cyclohexyl)-1H-indol-5-yl)thiophene-2-carboximidamide] | 3440 nM | 31800 nM | IC50 [3, 9]: 190 nM
3 |  | CNC1CCCC(c2c[nH]c3ccc(NC(=N)c4cccs4)cc23)C1 (single isomer, unassigned) [Compound 7a, N-(3-(3-(Methylamino)cyclohexyl)-1H-indol-5-yl)thiophene-2-carboximidamide dihydrochloride [(+)-cis-enantiomer]] |  |  | IC50 ([2]; Table 3): 49300 nM; IC50 ([3]; IC50, Human NET, Table 3): 1000 nM; reversal of thermal hyperalgesia (antihyperalgesic effect) [4]: clear antihyperalgesic effect; reversal of thermal hyperalgesia (antihyperalgesic effect) ([4]; listed as (+)−7a): reversal of thermal hyperalgesia; reversal of tactile allodynia (antiallodynic effect) [5]: reversal of tactile hyperthesia; also recorded: pronounced antiallodynic effect; reversal of tactile allodynia (antiallodynic effect) ([5]; listed as (+)−7a): reversal of tactile allodynia
4 | 380 nM | CCN[C@H]1CC[C@@H](c2c[nH]c3ccc(NC(=N)c4cccs4)cc32)CC1 (single isomer, unassigned) [Compound 5b, cis-N-(3-(4-(Ethylamino)cyclohexyl)-1H-indol-5-yl) thiophene-2-carboximidamide] |  |  | 
5 |  | CCNC1CCCC(c2c[nH]c3ccc(NC(=N)c4cccs4)cc23)C1 (racemic) [(±)-10, N-(3-(3-(ethylamino)cyclohexyl)-1H-indol-5-yl)thiophene-2-carboximidamide] |  |  | IC50 ([3]; IC50, Human NET, Table 3): 1700 nM
6 | 270 nM | CCNC1CCC(c2c[nH]c3ccc(NC(=N)c4cccs4)cc23)CC1 (mixture of isomers) [Compound 5, N-(3-(4-(ethylamino)cyclohexyl)-1H-indol-5-yl)thiophene-2-carboximidamide] |  |  | 
7 | 400 nM | CN[C@H]1CC[C@@H](c2c[nH]c3ccc(NC(=N)c4cccs4)cc32)CC1 [Compound 1a, N-(3-(4-(Methylamino)cyclohexyl)-1H-indol-5-yl)thiophene-2-carboximidamide] |  |  | 
8 | 2800 nM | CCN[C@H]1CC[C@H](c2c[nH]c3ccc(NC(=N)c4cccs4)cc32)CC1 (single isomer, unassigned) [Compound 5a, trans-N-(3-(4-(Ethylamino)cyclohexyl)-1H-indol-5-yl)thiophene-2-carboximidamide] |  |  | 
9 |  | CNC1CCCC(c2c[nH]c3ccc(NC(=N)c4cccs4)cc23)C1 (single isomer, unassigned) [(±)-7, N-(3-(-3-(Methylamino)cyclohexyl)-1H-indol-5-yl)thiophene-2-carboximidamide] |  |  | IC50 ([2]; Table 3): 77600 nM; IC50 ([3]; IC50, Human NET, Table 3): 2500 nM
10 |  | CNC1CCCC(c2c[nH]c3ccc(NC(=N)c4cccs4)cc23)C1 (racemic) [(±)-8, N-(3-(3-(methylamino)cyclohexyl)-1H-indol-5-yl)thiophene-2-carboximidamide] |  |  | IC50 ([2]; Table 3): 7760 nM; IC50 ([3]; IC50, Human NET, Table 3): 880 nM
11 |  | C/C1=C2/[N-][C@H]([C@H](CC(N)=O)[C@@]2(C)CCC(=O)NC[C@@H](C)OP(=O)([O-])O[C@H]2[C@@H](O)[C@@H](n3cnc4cc(C)c(C)cc43)O[C@@H]2CO)[C@]2(C)N=C(/C(C)=C3N=C(/C=C4N=C1[C@@H](CCC(N)=O)C\4(C)C)[C@@H](CCC(N)=O)[C@]\3(C)CC(N)=O)[C@@H](CCC(N)=O)[C@]2(C)CC(N)=O.[Co+3].[OH-] [hydroxycobalamin] |  |  | patients with a reduction in the frequency of migraine attack of 50% [6]: 53%
12 | 280 nM | CCNC1CC=C(c2c[nH]c3ccc(NC(=N)c4cccs4)cc23)CC1 (racemic) [(±)-6, N-(3-(4-(ethylamino)cyclohex-1-enyl)-1H-indol-5-yl)thiophene-2-carboximidamide] | 1420 nM | 40300 nM | 
13 |  | CNC(=N)NCCC[C@H](N)C(=O)O [L-NMMA, N^G-monomethyl-L-arginine] |  |  | response rate [7]: 67%
14 |  | CCNC1CCCC(c2c[nH]c3ccc(NC(=N)c4cccs4)cc23)C1 (racemic) [(±)-9, N-(3-(3-(ethylamino)cyclohexyl)-1H-indol-5-yl)thiophene-2-carboximidamide] |  |  | IC50 ([3]; IC50, Human NET, Table 3): 760 nM
15 | 1100 nM | CNC1CC=C(c2c[nH]c3ccc(NC(=N)c4cccs4)cc23)CC1 (single isomer, unassigned) [Compound 3b, N-(3-(4-(Methylamino)cyclohex-1-enyl)-1H-indol-5-yl)thiophene-2-carboximidamide] | 537 nM | 40900 nM | 
16 |  | CN(C)C1CC=C(c2c[nH]c3ccc(NC(=N)c4cccs4)cc23)CC1 (single isomer, unassigned) [Compound 2b, N-(3-(4-(Dimethylamino)cyclohex-1-enyl)-1H-indol-5-yl)thiophene-2-carboximidamide] | 839 nM | 96000 nM | IC50 [3, 9]: 960 nM
17 | 520 nM | CNC1CCC(c2c[nH]c3ccc(NC(=N)c4cccs4)cc23)CC1 (mixture of isomers) [Compound 1, N-(3-(4-(methylamino)cyclohexyl)-1H-indol-5-yl)thiophene-2-carboximidamide] |  |  | 
18 |  | CNC1CCCC(c2c[nH]c3ccc(NC(=N)c4cccs4)cc23)C1 (single isomer, unassigned) [Compound 7b, N-(3-(3-(Methylamino)cyclohexyl)-1H-indol-5-yl)thiophene-2-carboximidamide dihydrochloride [(−)-cis-enantiomer]] |  |  | IC50 ([2]; Table 3): 75000 nM; IC50 ([3]; IC50, Human NET, Table 3): 5200 nM
19 |  | CCNC1CCC(c2c[nH]c3ccc(NC(=N)c4cccs4)cc23)C1 (mixture of isomers) [Compound 11, N-(3-(3-(ethylamino)cyclopentyl)-1H-indol-5-yl)thiophene-2-carboximidamide] |  |  | IC50 ([1]; Table 3): 257 nM; IC50 ([2]; Table 3): 14300 nM
20 | 1300 nM | CNC1CC=C(c2c[nH]c3ccc(NC(=N)c4cccs4)cc23)CC1 (racemic) [(±)-3, N-(3-(4-(methylamino)cyclohex-1-enyl)-1H-indol-5-yl)thiophene-2-carboximidamide] | 1730 nM | 32000 nM | 
21 |  | CN(C)C1CC=C(c2c[nH]c3ccc(NC(=N)c4cccs4)cc23)CC1 (single isomer, unassigned) [Compound 2a, N-(3-(4-(Dimethylamino)cyclohex-1-enyl)-1H-indol-5-yl)thiophene-2-carboximidamide] | 865 nM | 47100 nM | IC50 [3, 9]: 1100 nM
22 | 2000 nM | CN[C@H]1CC[C@H](c2c[nH]c3ccc(NC(=N)c4cccs4)cc32)CC1 [Compound 1b, N-(3-(4-(Methylamino)cyclohexyl)-1H-indol-5-yl)thiophene-2-carboximidamide] |  |  | 
23 | 1100 nM | CNC1CC=C(c2c[nH]c3ccc(NC(=N)c4cccs4)cc23)CC1 (single isomer, unassigned) [Compound 3a, N-(3-(4-(Methylamino)cyclohex-1-enyl)-1H-indol-5-yl)thiophene-2-carboximidamide] | 439 nM | 53400 nM | 
